From the supplement of paper PMC10307832

What was measured:
Assay in all cases: relative viability (nuclei count vs DMSO), 5 days (fraction); higher = more cells survive
[1] = compound: CC[C@@H](C)CNCC(=O)N1CCC2=C([C@@H]1COC3=CC=CC(=C3)C)C=CS2 [RU-SKI 43] + O=C(CCCCCCC(=O)Nc1ccccc1)NO [Vorinostat] (partner 1 µM)
How it was run: (§1)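 Lung cancer cell lines in 1536-well plates were dosed by pin tool the day after seeding, either with one drug alone or with a fixed anchor-drug dose plus five library-drug doses (not always all listed) in √10 steps. After 5 days, cells were fixed and their nuclei stained in one step (final 0.05% Triton X-100, 1% formaldehyde, 1 ug/ml Hoechst), then counted on 4× images. Relative viability is the nuclei count in treated wells divided by that in vehicle wells. Values are medians of duplicate plates.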

[2] = compound: Cn1cc(-c2cnc3ccc4ccc(CS(=O)(=O)NCc5ccccn5)cc4c(=O)c3c2)cn1 [MK-8033] + COc1cccc2cc(-c3nc([C@H]4CC[C@H](C(=O)O)CC4)n4ncnc(N)c34)[nH]c12 [OSI-027] (partner 0.5 µM)
How it was run: as §1

[3] = compound: Cn1cc(-c2cnc3ccc4ccc(CS(=O)(=O)NCc5ccccn5)cc4c(=O)c3c2)cn1 [MK-8033] + C[C@@H](Oc1cc(-c2cnn(C3CCNCC3)c2)cnc1N)c1c(Cl)ccc(F)c1Cl [Crizotinib] (partner 1 µM)
How it was run: as §1

Cell Line	relative viability ([1]; first compound 0.1 µM)	relative viability ([1]; first compound 0.3162 µM)	relative viability ([1]; first compound 1 µM)	relative viability ([1]; first compound 3.162 µM)	relative viability ([1]; first compound 10 µM)	relative viability ([2]; first compound 0.02 µM)	relative viability ([2]; first compound 0.06325 µM)	relative viability ([2]; first compound 0.2 µM)	relative viability ([2]; first compound 0.6325 µM)	relative viability ([2]; first compound 2 µM)	relative viability ([3]; first compound 0.02 µM)	relative viability ([3]; first compound 0.06325 µM)	relative viability ([3]; first compound 0.2 µM)	relative viability ([3]; first compound 0.6325 µM)	relative viability ([3]; first compound 2 µM)
NCI-H1666	0.953	1.08	1.13	0.997	0.799	0.886	0.754	0.771	0.94	0.803	0.909	0.942	0.982	0.999	1.01
HARA	0.568	0.52	0.485	0.517	0.548	0.569	0.265	0.487	0.429	0.418	0.964	1.05	0.921	1.08	1.04
NCI-H661	0.752	0.984	0.815	0.777	0.736	0.727	0.656	0.687	0.699	0.668	0.991		1.02	0.948	0.903
NCI-H2087	0.818	1.02	0.985	0.789	0.57	0.546	0.519	0.443	0.642	0.617	0.957	0.746	0.883	0.989	0.836
LC-2-ad	0.739	0.738	0.697	0.693	0.633	0.806	0.91		0.884	0.789	0.423	0.347	0.393	0.447	0.445
NCI-H2405	1.1	1.11	1.18	1.02	1	0.595	0.538	0.594	0.604	0.604	0.809	0.783	0.842	0.871	0.811
HCC-44	1.14	1.12	1.12	1.15	1.05	0.472	0.508	0.465	0.605	0.522	0.808	0.732	0.755	0.746	0.756
NCI-H3122	1.06	1.36	1.04	0.467	1.06	1.05	0.957	0.926	0.991	0.916	0.335	0.249	0.311	0.272	0.286
LU99A	0.476	0.558	0.479	0.447	0.359	0.315	0.251	0.299	0.298	0.307	0.692	0.542	0.619	0.491	0.525
ABC-1	0.964	1.08	1.27	1.01	1.16	0.417	0.339	0.415	0.457	0.506	1.06	1.14	1.06	0.996	1.04
H3255	0.838	0.763	1.1	0.851	0.769	0.621	0.551	0.597	0.491	0.639	0.951	0.759	0.775	0.625	0.787
HCC-827	0.768	0.81	1.04	0.783	0.885	0.774		0.735	0.801	0.758	0.925		0.955	0.874	0.885
NCI-H1734	0.821	0.833	0.81	0.852	0.701	0.59	0.508	0.612	0.632	0.547	0.682	0.547	0.645	0.508	0.595
EBC-1											0.158	0.16	0.193	0.193	0.188
NCI-H838	0.745	0.842	0.733	0.744	0.633	0.374	0.368	0.361	0.407	0.412	0.807	0.757	0.884	0.804	0.787
NCI-H1437	0.839	0.958	0.84	0.798	0.671	1.03	0.849	0.808	0.839	0.83	1.04	0.723	0.545	0.877	0.918
NCI-H1915	0.563	0.602	0.639	0.54	0.549	0.649	0.559	0.62	0.65	0.596	0.935	0.896	0.802	0.885	0.911
SK-MES-1	1.15	1.45	1.28	1.21	1.1	0.621	0.592	0.566	0.605	0.535	0.96	0.959	0.919	1.01	0.992
NCI-H2342	0.724		0.718	0.884	0.716	0.588	0.64	0.719	0.665	0.632					
NCI-H1299											0.956	0.925	0.92	0.946	0.971
NCI-H1650	0.55	0.674	0.523	0.583	0.589	0.677	0.404	0.568	0.644	0.485	0.997	0.867	0.996	0.919	0.832

Cell Line	relative viability ([1]; first compound 0.1 µM)	relative viability ([1]; first compound 0.3162 µM)	relative viability ([1]; first compound 1 µM)	relative viability ([1]; first compound 3.162 µM)	relative viability ([1]; first compound 10 µM)	relative viability ([2]; first compound 0.02 µM)	relative viability ([2]; first compound 0.06325 µM)	relative viability ([2]; first compound 0.2 µM)	relative viability ([2]; first compound 0.6325 µM)	relative viability ([2]; first compound 2 µM)	relative viability ([3]; first compound 0.02 µM)	relative viability ([3]; first compound 0.06325 µM)	relative viability ([3]; first compound 0.2 µM)	relative viability ([3]; first compound 0.6325 µM)	relative viability ([3]; first compound 2 µM)
NCI-H647	0.543	0.948	0.573	0.731	0.527	0.69	0.723	0.534	0.46	0.582	1.03	0.891	0.959	0.919	0.928
NCI-H1944	0.548	0.623	0.522	0.499	0.513	0.436	0.292	0.4	0.4	0.404	1.12		1.02	1.06	1.11
NCI-H23	0.473	0.602	0.571	0.587	0.48	0.496	0.525	0.553	0.605	0.538	0.446	0.391	0.487	0.468	0.552
NCI-H1792						0.655	0.611	0.683	0.628	0.512	1.02	0.959	0.982	0.828	1.03
HCC-78	0.531	0.378	0.469	0.475	0.439	0.352		0.329	0.34	0.398	0.336	0.316	0.344		0.32
NCI-H358	0.642	0.929	0.708	0.793	0.614	0.799	0.64	0.613	0.812	0.58	0.493	0.503	0.595	0.434	0.508
NCI-H520	0.77	0.745	0.788	0.704	0.646	0.256	0.287	0.302	0.25	0.222	0.797	0.678	0.663	0.59	0.78
BEN	0.621	0.531	0.665	0.639	0.546	0.305	0.298	0.295	0.284	0.244	0.895	0.763	0.838	0.89	0.773
A-427	0.868	0.823	0.933	0.873	0.786	0.539	0.463	0.431	0.527	0.4	0.933	0.734	0.824	0.88	0.865
EMC-BAC-2	0.526	0.362	0.79	0.375	0.521	0.384	0.408	0.395	0.375	0.386	0.76	0.77	0.718	0.783	0.701
NCI-H1648	0.416	0.572	0.563	0.51	0.754		0.261	0.261		0.25					
NCI-H1703											0.583	0.576	0.549	0.601	0.715
NCI-H1563						0.789	0.8	0.727	0.807	0.724	0.918	0.813	0.773	0.93	0.812
NCI-H1623						0.411	0.409	0.495	0.442	0.477					
Calu-6											0.831	0.77	0.704	0.828	0.695
IA-LM	0.795	0.993	0.964	0.978	0.977						0.739	0.667	0.948	0.667	0.899
NCI-H522	0.88	0.803	1.01	0.941	0.932	0.806	0.627	0.661	0.729	0.722					
SW 900	0.36	0.584	0.782	0.621	0.221	0.597	0.437	0.515	0.448	0.597					
NCI-H1793	0.799	0.742	0.872	0.792	0.602	0.247	0.253	0.233	0.282	0.2					
A549											0.719	0.713	0.703	0.848	0.677
NCI-H1395	0.844	0.602	1.07	0.611	0.91	0.557	0.555	0.601	0.644	0.615					
